Results as given in patent US20210246109A1, “POTENT AND SELECTIVE INHIBITORS OF CYTOCHROME P450” (University of Kentucky Research Foundation, priority 2020, published 2021).
“And” between values parts separate entries of the source, which are not always exact repeats. Equal values may be shown once. Read-outs that look alike come from different tables or passages of the source.

Legend:
[1] = test system: HEK; test: Cytotoxicity, resazurin, 72 hours after compound addition; assay type: cell-based
Description: Cytotoxicity was assessed at 72 hours after compound addition using resazurin. The compounds that function as selective 1B1 inhibitors had no effect on cell health. This is an essential feature for any chemopreventative agent or molecules intended to block the detrimental action of an enzyme.

[2] = target: T1, CYP1B1 (Homo sapiens, UniProt Q16678); test: EROD assay in inducible CYP1B1 cell line; assay type: cell-based; details: for IC50: Table 3, read-out: IC50 1B1
T1 construct: expressed in transfected cells
T1 sequence (Q16678 1-543): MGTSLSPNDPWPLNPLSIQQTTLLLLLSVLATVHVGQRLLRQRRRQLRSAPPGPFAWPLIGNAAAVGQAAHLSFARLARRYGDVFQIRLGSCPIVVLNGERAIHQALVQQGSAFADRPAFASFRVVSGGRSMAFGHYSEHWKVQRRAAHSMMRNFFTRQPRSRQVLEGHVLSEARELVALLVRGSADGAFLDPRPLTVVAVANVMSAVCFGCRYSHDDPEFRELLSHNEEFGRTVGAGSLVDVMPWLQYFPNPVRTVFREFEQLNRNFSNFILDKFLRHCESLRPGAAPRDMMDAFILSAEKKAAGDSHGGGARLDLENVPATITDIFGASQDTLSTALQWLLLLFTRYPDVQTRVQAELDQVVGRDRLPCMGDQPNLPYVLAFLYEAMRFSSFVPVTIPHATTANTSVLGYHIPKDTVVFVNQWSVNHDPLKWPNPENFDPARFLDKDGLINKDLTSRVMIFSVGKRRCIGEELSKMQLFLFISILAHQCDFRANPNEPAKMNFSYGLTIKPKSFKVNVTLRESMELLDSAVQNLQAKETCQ
Description: (§1) The activity of the inhibitors was assessed in a novel cell based assay generated for the purpose of this project. Enzymatic turnover of CYP1B1 was measured using the ethoxy-resorufin-O-deethylase (EROD) assay with the fluorescent substrate, resorufin ethyl ether. Cell lines were generated where the gene for CYP1B1 alone or CYP1B1 and cytochrome P450 reductase (CPR) were both under the control of an inducible promoter. A cell line was generated for counter screening where the gene for CYP1A1 was used. CYP1A1 is the closest family member to CYP1B1.

[3] = target: T2, CYP1A1 (Homo sapiens, UniProt P04798); test: EROD assay in CYP1A1 counter-screen cell line; assay type: cell-based; details: Table 3; read-out: IC50 1A1
T2 construct: expressed in transfected cells
T2 sequence (P04798 1-512): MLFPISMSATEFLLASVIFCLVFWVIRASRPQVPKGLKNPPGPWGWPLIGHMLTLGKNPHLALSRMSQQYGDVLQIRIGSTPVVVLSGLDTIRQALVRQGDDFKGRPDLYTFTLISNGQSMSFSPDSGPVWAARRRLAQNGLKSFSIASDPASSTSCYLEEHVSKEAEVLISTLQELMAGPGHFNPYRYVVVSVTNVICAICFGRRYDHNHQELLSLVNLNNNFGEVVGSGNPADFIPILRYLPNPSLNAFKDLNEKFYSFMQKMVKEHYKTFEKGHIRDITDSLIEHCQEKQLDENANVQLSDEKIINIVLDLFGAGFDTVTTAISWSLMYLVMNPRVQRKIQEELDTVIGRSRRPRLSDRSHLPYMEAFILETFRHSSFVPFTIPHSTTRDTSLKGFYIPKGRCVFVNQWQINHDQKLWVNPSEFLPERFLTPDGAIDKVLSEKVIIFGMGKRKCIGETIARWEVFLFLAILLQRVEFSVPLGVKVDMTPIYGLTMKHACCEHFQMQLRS
Description: as §1

[4] = target: T3, pooled human liver microsomes (pHLMs) (Homo sapiens, UniProt P05177); test: EROD counterscreen in pooled human liver microsomes; assay type: biochemical; details: human, microsomes, Table 3; read-out: IC50 pHLM
T3 sequence (P05177 2-516): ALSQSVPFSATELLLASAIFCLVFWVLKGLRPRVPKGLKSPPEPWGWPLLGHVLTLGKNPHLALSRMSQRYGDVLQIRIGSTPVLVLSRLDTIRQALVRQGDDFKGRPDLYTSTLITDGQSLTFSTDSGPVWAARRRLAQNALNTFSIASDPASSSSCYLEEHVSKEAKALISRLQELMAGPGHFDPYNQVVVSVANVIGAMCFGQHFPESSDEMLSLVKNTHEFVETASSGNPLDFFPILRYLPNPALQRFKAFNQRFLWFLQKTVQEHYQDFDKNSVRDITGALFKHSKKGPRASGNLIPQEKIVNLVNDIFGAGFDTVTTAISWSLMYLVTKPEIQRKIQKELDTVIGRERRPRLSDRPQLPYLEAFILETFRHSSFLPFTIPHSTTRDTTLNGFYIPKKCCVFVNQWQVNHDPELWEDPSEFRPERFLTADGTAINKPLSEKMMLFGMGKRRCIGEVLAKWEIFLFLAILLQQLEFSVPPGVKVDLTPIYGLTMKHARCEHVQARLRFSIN
Source text: Human liver microsomes were used as a counterscreen to experimentally determine the magnitude of inhibitor selectivity.

IC50 [2] | IC50 [3] | SMILES | other results
– | – | O=c1cc(-c2ccccc2)oc2c1ccc1ccccc12 [ANF, reference compound] | IC50 ([1]; Table 1, 72 hours, resazurin, read-out: Cytotoxicity IC50): > 10 µM; IC50 ([1]; Table 3, HEK, read-out: HEK cytotoxicity): > 10 µM
– | – | COc1ccc(/C=C/c2ccccc2)c(OC)c1 [Compound 1] | activity as CYP1B1 inhibitor, in words [2]: poor activity
– | – | COc1ccc(/C=C/c2ccncc2)c(OC)c1 [Compound 6] | activity as CYP1B1 inhibitor, in words [2]: potent
– | – | COc1ccc(/C=C/c2cc[n+](C)cn2)c(OC)c1 [Compound 7] | activity as CYP1B1 inhibitor, in words [2]: poor activity
– | – | N#CCOc1ccc(/C=C/c2ccncn2)cc1 [Compound 13] | activity as CYP1B1 inhibitor, in words [2]: potent
13900 nM | > 10000 nM | COc1ccc(/C=C/c2cc[n+](C)cn2)c(OC)c1.[I-] [GL461] | HEK cell viability % at 10 μM ([1]; Table 3, HEK): 103%
– | 4460 nM and > 10000 nM | COc1ccc(/C=C/c2ccccc2)c(OC)c1 [GL469] | IC50 [4]: 6 µM; HEK cell viability % at 10 μM ([1]; Table 3, HEK): 124.2%
– | 5500 nM and 3500 nM | N#CCOc1ccc(-c2nc3ccccc3[nH]2)cc1 [GL509] | IC50 [4]: 8.36 µM; HEK cell viability % at 10 μM ([1]; Table 3, HEK): 75%
2440 nM | – | O=c1[nH]c(-c2ccccn2)nc2ccccc12 [GL518] | –
970 nM | > 10000 nM | COc1ccc(-c2nc3ccccc3c(=O)n2CC#N)c(OC)c1 [GL519] | HEK cell viability % at 10 μM ([1]; Table 3, HEK): 88.7%
0.51 nM and 1.3 nM | 1230 nM and 1180 nM | COc1cc(OCC#N)ccc1-c1nc2ccccc2c(=O)[nH]1 [GL521] | IC50 [4]: > 10 µM
– | > 10000 nM | N#CCOc1ccc(-c2nc3ccccc3[nH]2)cc1 [GL523] | HEK cell viability % at 10 μM ([1]; Table 3, HEK): 93.4%
51 nM | > 10000 nM | N#CCOc1ccc(/C=N/c2ccccc2C(N)=O)cc1 [GL542] | –
– | 4400 nM | N#CCOc1ccc(-c2nc3ccccc3c(=O)[nH]2)c(OCC#N)c1 [GL545] | –
20.4 nM | 3500 nM | N#CCOc1ccc(-c2nc3ccccc3c(=O)[nH]2)cc1OCC#N [GL546] | –
< 0.25 nM | 560 nM | COc1cc(-c2nc3ccc(I)cc3c(=O)[nH]2)ccc1OCC#N [GL551] | IC50 [4]: > 3 µM
1.8 nM | > 10000 nM | COc1cc(-c2nc3ccc(C#Cc4ccccc4)cc3c(=O)[nH]2)ccc1OCC#N [GL552] | –
3.8 nM | 4760 nM | COc1ccc(-c2nc3ccccc3c(=O)[nH]2)cc1 [GL553] | –
3.5 nM | 3330 nM | COc1ccc(-c2nc(OCC#N)c3ccccc3n2)cc1 [GL554] | –
6.7 nM | 2590 nM | COc1ccc(-c2nc(OC)c3ccccc3n2)cc1 [GL556] | –
< 0.7 nM | 1720 nM | COc1cc(-c2nc(OCC#N)c3ccccc3n2)ccc1OCC#N [GL557] | –
< 0.7 nM | 2460 nM | COc1nc(-c2ccc(OCC#N)cc2)nc2ccccc12 [GL558] | –
< 2.5 nM | 1940 nM | N#CCOc1ccc(-c2nc(OCCCCCCBr)c3ccccc3n2)cc1 [GL564] | IC50 [4]: > 10 µM
< 2.5 nM | 1870 nM | N#CCOc1ccc(-c2nc(OCCCCCCN=[N+]=[N-])c3ccccc3n2)cc1 [GL565] | IC50 [4]: > 10 µM
< 2.5 nM | 1280 nM | CC(C)(C)OC(=O)NCCCOc1nc(-c2ccc(OCC#N)cc2)nc2ccccc12 [GL571] | IC50 [4]: > 10 µM
< 2.5 nM | 2120 nM | N#CCOc1ccc(-c2nc(OCCCN)c3ccccc3n2)cc1 [GL572] | IC50 [4]: > 10 µM
9400 nM | 1100 nM | O=C(NCCCOc1ccc(CCc2ccncn2)cc1)OCCOCCOCCOC(=O)NC12CC3CC(CC(C3)C1)C2 [GL594] | –
